{"source": "patent US20030068802A1", "about": "“Use of streptococcus pneumoniae acyl carrier protein synthase crystal structure in diagnostics, antimicrobial drug design, and biosensors” (priority 2000, published 2003)", "key": {"[1]": {"biological_target": "T1, purified AcpS of S. pneumoniae (Streptococcus pneumoniae, UniProt P0A2W7)", "T1 construct": "made in house; host or cells: E. coli BL21 (pLysS)/pRBP-19 (pET-11a)", "T1 sequence (P0A2W7 1-120)": "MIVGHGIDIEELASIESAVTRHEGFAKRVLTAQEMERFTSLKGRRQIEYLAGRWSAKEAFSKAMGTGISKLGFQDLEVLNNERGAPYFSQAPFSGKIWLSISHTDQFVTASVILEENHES", "assay": "HPLC-based AcpS enzyme assay (conversion of apo-ACP to holo-ACP)", "type": "biochemical", "details": "for Ki: 3.7 nM AcpS; for relative activity as substrate of AcpS: CoA = 100, 1.5 μM apo-ACP, 20 μM CoA or CoA derivative, 19 nM AcpS", "procedure": "(§1) Unless otherwise indicated, reaction mixtures contain 50 mM Tris-HCl, pH 7.0, 10 mM MgCl2, 2.5-50 μM CoA, 0.25-6.0 μM purified apo-ACP of S. pneumoniae, and 3.7 nM purified AcpS of S. pneumoniae, and are incubated at 37° C. for 9 min. Reactions are stopped by the addition of 50 mM EDTA. The formation of holo-ACP is determined by an HPLC or a trichloroacetic acid (TCA) precipitation method (see below). An HPLC-based assay is adapted from the method described previously (Lambalot and Walsh, 1997). This assay monitors the conversion of apo-ACP to holo-ACP. Reaction mixtures (100 μl each) are injected into an analytical HPLC column (Vydac protein C4 reverse-phase; P. J. Cobert Associates, Inc., St. Louis, Mo.) equilibrated with 45% acetonitrile in 0.1% trifluoroacetic acid. The column is eluted with an 8 ml linear gradient of 45-80% acetonitrile. The column elution profiles are monitored at 220 nm. Under these conditions, holo-ACP migrates faster than apo-ACP. The amount of holo-ACP formed is estimated by comparing the peak area of the holo-ACP formed with those of both apo- and holo-ACP.\n(§2) To examine the substrate specificity of AcpS, a variety of CoA derivatives (acetyl-CoA, malonyl-CoA, acetoacetyl-CoA, desulfo-CoA, and dephospho-CoA) are tested. All reaction mixtures contain 1.5 μM apo-ACP, 20 μM CoA or CoA derivative, and 19 nM AcpS, and the formation of holo-ACP is determined by the HPLC method.\nFor the determination of Km and Vmax (kcat) of AcpS for apo-ACP, reaction mixtures (in quadruplicate) contain 20 μM CoA, 0.25 to 100 μM apo-ACP, and 3.7 nM. AcpS. The formation of holo-ACP is measured by the HPLC method or the TCA precipitation method. To determine Km for CoA, the reaction conditions are the same as those described above except that the concentration of apo-ACP is 2.0 μM, and the concentrations of CoA were 5 to 600 μM. […]\nTo evaluate the inhibition of AcpS activity by 3′,5′-ADP with respect to CoA, reaction mixtures contain 1-60 μM 3′,5′-ADP, 2.5-60 μM CoA, 1.0 μM apo-ACP, and 3.7 nM AcpS. To evaluate the inhibition of AcpS activity by 3′,5′-ADP with respect to apo-ACP, reaction mixtures contain 1-60 μM 3′,5′-ADP, 0.5-6.0 μM apo-ACP, 20 μM CoA, and 3.7 nM AcpS. The formation of holo-ACP is analyzed by the HPLC method."}, "[2]": {"biological_target": "T1, purified AcpS of S. pneumoniae", "assay": "Substrate binding to AcpS by gel filtration column chromatography, mass spectrometry and filter binding", "details": "27 μM AcpS, 10 mM MgCl2, 100 μM apo-ACP or 50 μM CoA, room temperature 30 min", "procedure": "To determine whether AcpS binds directly to apo-ACP or CoA in the absence of the other substrate, a purified AcpS preparation (27 μM) is first mixed with 10 mM MgCl2, and then either 100 μM apo-ACP or 50 μM CoA. The mixture is incubated at room temperature for 30 min and subjected to gel filtration column chromatography (S-75 Superdex) under the conditions described above. The fractions containing the AcpS-apo-ACP complex and unbound apo-ACP are analyzed by SDS-PAGE (16% tricine gels), SYPRO Orange staining, and mass spectrometry.\nThe order of substrate binding to AcpS can be analyzed by determining the binding of CoA and apo-ACP to purified AcpS by gel filtration column chromatography, mass spectrometry, or filter binding assays. If CoA binds to AcpS first and forms an enzyme-substrate complex that is required for the next reaction with apo-ACP, then a stable enzyme-substrate complex should be detectable. […]\nWhether apo-ACP binds to AcpS in the absence of CoA, a mixture of AcpS and apo-ACP (apo-ACP/AcpS=5:1) can be subjected to gel filtration column chromatography and analysis of the column fractions by SDS-PAGE. […] Consistent with the formation of the AcpS-apo-ACP complex, the presence of apo-ACP is also detected in the fractions containing purified AcpS (FIG. 2B). […]"}, "[3]": {"substrate": "CC(C)(COP(=O)(O)OP(=O)(O)OC[C@H]1O[C@@H](n2cnc3c(N)ncnc32)[C@H](O)[C@@H]1OP(=O)(O)O)[C@@H](O)C(=O)NCCC(=O)NCCS", "assay": "HPLC-based AcpS enzyme assay (conversion of apo-ACP to holo-ACP)", "type": "biochemical, Streptococcus pneumoniae", "details": "other: fixed apo-ACP 2 μM, various CoA, HPLC method; pH 7.0; 37.0 °C", "procedure": "as §1, with “The amount of holo-ACP formed is estimated by comparing the peak area of the holo-ACP formed with those of both apo- and holo-ACP.” left out\nas §2, with “method. […]” for “method.”"}, "[4]": {"biological_target": "Streptococcus pneumoniae apo-acyl carrier protein (apo-ACP)"}, "[5]": {"substrate": "CC(C)(COP(=O)(O)OP(=O)(O)OC[C@H]1O[C@@H](n2cnc3c(N)ncnc32)[C@H](O)[C@@H]1OP(=O)(O)O)[C@@H](O)C(=O)NCCC(=O)NCCS", "assay": "TCA precipitation AcpS assay ([3H]CoA incorporation into apo-ACP)", "type": "biochemical, Streptococcus pneumoniae", "details": "other: TCA precipitation method", "procedure": "AcpS activity is also assayed by using a TCA precipitation method (Lambalot and Walsh, 1995). This method measures the incorporation of the 3H-labeled 4′-phospho-pantotheine group from [^3H]CoA into apo-ACP. Reaction conditions are the same as those described for the HPLC assay, except that [^3H]COA (specific activity, 1.5 Ci/mmol, NEN Life Science Products, Boston, Mass.) is used alone or in combination with CoA. Reactions are stopped by the addition of 0.9 ml of cold 10% TCA followed by 37 μg of bovine serum albumin (BSA). Precipitated protein is collected by centrifugation (a microfuge at 14,000 rpm) for 5 min and washed twice with ice-cold 10% TCA. The protein collected is resuspended in 150 μl of 1M Tris base and 0.1% Triton X-100. The resulting suspension (100 μl) is mixed with 2.5 ml of Ready Protein+scintillation fluid (Beckman, Fullerton, Calif.), and counted using an LS 60001C scintillation counter (Beckman).\nFor the determination of Km and Vmax (kcat) of AcpS for apo-ACP, reaction mixtures (in quadruplicate) contain 20 μM CoA, 0.25 to 100 μM apo-ACP, and 3.7 nM. AcpS. The formation of holo-ACP is measured by the HPLC method or the TCA precipitation method. To determine Km for CoA, the reaction conditions are the same as those described above except that the concentration of apo-ACP is 2.0 μM, and the concentrations of CoA were 5 to 600 μM."}}, "data": [{"molecule": "Nc1ncnc2c1ncn2[C@@H]1O[C@H](COP(=O)(O)O)[C@@H](OP(=O)(O)O)[C@H]1O", "note": "[3′,5′-ADP, 3′,5′-adenosine diphosphate]", "values": [{"measurement": "Ki", "setting": "[1]; inhibition of AcpS activity with respect to CoA, various CoA concentrations, fixed apo-ACP 1.0 μM, Dixon plot FIG. 7C", "result": 6, "unit": "µM"}, {"measurement": "Ki", "setting": "[1]; inhibition of AcpS activity with respect to apo-ACP, various apo-ACP concentrations, fixed CoA 20 μM, Dixon plot FIG. 7D", "result": 2.5, "unit": "µM"}, {"measurement": "pattern of inhibition with respect to CoA (double reciprocal plots)", "setting": "[1]; various CoA, fixed apo-ACP", "result": "simple competitive pattern"}, {"measurement": "pattern of inhibition with respect to apo-ACP (double reciprocal plots)", "setting": "[1]; various apo-ACP, fixed CoA", "result": "linear-mixed pattern"}]}, {"molecule": "CC(C)(COP(=O)(O)OP(=O)(O)OC[C@H]1O[C@@H](n2cnc3c(N)ncnc32)[C@H](O)[C@@H]1OP(=O)(O)O)[C@@H](O)C(=O)NCCC(=O)NCCS", "note": "[CoA, Coenzyme A]", "values": [{"measurement": "relative activity as substrate of AcpS", "setting": "[1]", "result": 100}, {"measurement": "binding to AcpS in the absence of the other substrate", "setting": "[2]", "result": "does not appear to bind"}]}, {"molecule": "CC(=O)CC(=O)SCCNC(=O)CCNC(=O)[C@H](O)C(C)(C)COP(=O)(O)OP(=O)(O)OC[C@H]1O[C@@H](n2cnc3c(N)ncnc32)[C@H](O)[C@@H]1OP(=O)(O)O", "note": "[acetoacetyl-CoA]", "values": [{"measurement": "relative activity as substrate of AcpS", "setting": "[1]", "result": 65}]}, {"molecule": "CC(=O)SCCNC(=O)CCNC(=O)[C@H](O)C(C)(C)COP(=O)(O)OP(=O)(O)OC[C@H]1O[C@@H](n2cnc3c(N)ncnc32)[C@H](O)[C@@H]1OP(=O)(O)O", "note": "[acetyl-CoA]", "values": [{"measurement": "relative activity as substrate of AcpS", "setting": "[1]", "result": 91}]}, {"molecule": "CC(C)(COP(=O)(O)OP(=O)(O)OC[C@H]1O[C@@H](n2cnc3c(N)ncnc32)[C@H](O)[C@@H]1O)[C@@H](O)C(=O)NCCC(=O)NCCS", "note": "[dephospho-CoA]", "values": [{"measurement": "relative activity as substrate of AcpS", "setting": "[1]", "result": 0}]}, {"molecule": "CCNC(=O)CCNC(=O)[C@H](O)C(C)(C)COP(=O)(O)OP(=O)(O)OC[C@H]1O[C@@H](n2cnc3c(N)ncnc32)[C@H](O)[C@@H]1OP(=O)(O)O", "note": "[desulfo-CoA]", "values": [{"measurement": "relative activity as substrate of AcpS", "setting": "[1]", "result": 76}]}, {"molecule": "CC(C)(COP(=O)(O)OP(=O)(O)OC[C@H]1O[C@@H](n2cnc3c(N)ncnc32)[C@H](O)[C@@H]1OP(=O)(O)O)[C@@H](O)C(=O)NCCC(=O)NCCSC(=O)CC(=O)O", "note": "[malonyl-CoA]", "values": [{"measurement": "relative activity as substrate of AcpS", "setting": "[1]", "result": 12}]}, {"molecule": "purified AcpS of S. pneumoniae (Streptococcus pneumoniae R6) (protein, made in house; host or cells: E. coli BL21 (pLysS)/pRBP-19 (pET-11a)) MIVGHGIDIEELASIESAVTRHEGFAKRVLTAQEMERFTSLKGRRQIEYLAGRWSAKEAFSKAMGTGISKLGFQDLEVLNNERGAPYFSQAPFSGKIWLSISHTDQFVTASVILEENHES", "values": [{"measurement": "Km", "setting": "[3]", "result": "11.5 ± 0.9", "unit": "µM"}, {"measurement": "Km (for apo-ACP), HPLC assay of holo-ACP formation, high apo-ACP concentrations", "setting": "[4]", "result": "109 ± 6.8", "unit": "µM"}, {"measurement": "Km (for apo-ACP), HPLC assay of holo-ACP formation, low apo-ACP concentrations", "setting": "[4]", "result": 0.5, "unit": "µM"}, {"measurement": "apparent Km for apo-ACP, TCA precipitation assay with [3H]CoA", "setting": "[4]", "result": 1.3, "unit": "µM"}, {"measurement": "fold decrease of affinity (Km) at high versus low apo-ACP concentrations", "setting": "[4]", "result": "approximately 200-fold"}, {"measurement": "Km", "setting": "[5]", "result": "7.1 ± 0.4", "unit": "µM"}]}]}
